Source: the NIST ThermoML archive (doi:10.1021/je4000372)

Assay: xn = mol fraction of the nth substance listed
Details: 101 kPa, Liquid; for viscosity: Capillary tube (Ostwald / Ubbelohde) method; for mass density: Pycnometric method

CCCCOCCOCCO [3,6-dioxa-1-decanol] + NCCO
Details | mass density, 293.15 K [kg/m3] | mass density, 303.15 K [kg/m3] | mass density, 313.15 K [kg/m3] | mass density, 323.15 K [kg/m3] | mass density, 333.15 K [kg/m3] | viscosity, 293.15 K [mPa·s] | viscosity, 303.15 K [mPa·s] | viscosity, 313.15 K [mPa·s] | viscosity, 323.15 K [mPa·s] | viscosity, 333.15 K [mPa·s]
x1 = 0.04025 | 1010.3 | 1002.5 | 994.3 | 986.2 | 978.2 | 23.11 | 14.27 | 9.52 | 6.64 | 4.82
x1 = 0.08607 | 1004.5 | 996.6 | 988.5 | 980.4 | 972.5 | 21.86 | 13.61 | 9.1 | 6.37 | 4.65
x1 = 0.1392 | 998.5 | 990.5 | 982.5 | 974.3 | 966.4 | 20.39 | 12.86 | 8.62 | 6.07 | 4.43
x1 = 0.2008 | 992.5 | 984.2 | 976.4 | 968.1 | 960.1 | 18.81 | 11.99 | 8.08 | 5.73 | 4.19
x1 = 0.2732 | 986.4 | 977.9 | 970.1 | 961.7 | 953.7 | 17.01 | 11.01 | 7.47 | 5.33 | 3.91
x1 = 0.3602 | 980.2 | 971.5 | 963.7 | 955.1 | 947.1 | 15.02 | 9.83 | 6.76 | 4.88 | 3.61
x1 = 0.4111 | 976.9 | 968.2 | 960.4 | 951.8 | 943.7 | 13.86 | 9.16 | 6.37 | 4.63 | 3.45
x1 = 0.4671 | 973.8 | 964.9 | 957.2 | 948.4 | 940.4 | 12.72 | 8.51 | 5.97 | 4.37 | 3.28
x1 = 0.4977 | 972.1 | 963.3 | 955.5 | 946.7 | 938.7 | 12.16 | 8.17 | 5.77 | 4.23 | 3.19
x1 = 0.6007 | 967.1 | 958.1 | 950.3 | 941.5 | 933.5 | 10.46 | 7.18 | 5.12 | 3.79 | 2.91
x1 = 0.7204 | 962 | 952.9 | 945.2 | 936.3 | 928.3 | 8.65 | 6.21 | 4.42 | 3.34 | 2.59
x1 = 0.7699 | 960.2 | 951.1 | 943.3 | 934.4 | 926.4 | 8.02 | 5.82 | 4.17 | 3.17 | 2.48
x1 = 0.8163 | 958.5 | 949.3 | 941.6 | 932.7 | 924.7 | 7.42 | 5.47 | 3.96 | 3.02 | 2.37
x1 = 0.9331 | 954.8 | 945.5 | 937.7 | 928.7 | 920.7 | 6.34 | 4.62 | 3.48 | 2.69 | 2.11
x1 = 1 | 952.9 | 943.5 | 935.7 | 926.6 | 918.5 | 5.84 | 4.23 | 3.22 | 2.51 | 2
